# According to patent publication US5550139A, “Serine protease inhibitors” (The Wichita State University, priority 1994, dated 1996):
# Experiments:
# Type in all cases: biochemical
# [1] = target: T1, human leukocyte elastase (HLE) (Homo sapiens, UniProt P08246); test: Inactivation of human leukocyte elastase (kobs/[I]); settings: for HLE % inhibition: Table 1B footnote, [I]/[E] ratio of 200, 10 minute incubation period
# T1 construct: purchased Elastin Products Co., Owensville, Mo
# T1 sequence (P08246 30-247 limits assumed): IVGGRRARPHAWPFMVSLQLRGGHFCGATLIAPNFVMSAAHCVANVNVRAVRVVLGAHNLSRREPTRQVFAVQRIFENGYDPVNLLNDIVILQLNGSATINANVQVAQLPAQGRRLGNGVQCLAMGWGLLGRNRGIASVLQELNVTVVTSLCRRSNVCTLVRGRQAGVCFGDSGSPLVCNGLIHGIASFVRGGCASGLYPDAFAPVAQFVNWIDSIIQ
# Description: (§1) An in vitro assay can be used to screen compounds of the invention for the ability to reduce or inhibit serine proteinase activity. The human leukocyte elastase (HLE), cathepsin G (Cath G), and proteinase-3 assays have each been described (Groutas et al., J. Med. Chem. 32:1607-1611, 1989; Groutas et al., Arch. Biochem. Biophys. 294:144-146, 1992; Kao et al., J. Clin. Invest. 82:1963-1973, 1988, each incorporated by reference herein). The pseudo first-order inactivation rate constants (kobs) were obtained from plots of ln(vt /vo) vs t, and expressed in terms of the apparent second-order inactivation rate constant, kobs /[I] M^-1 s^-1 (Tables 1-7). Tables 1-7 disclose the activity of preferred compounds of the invention as inhibitors of HLE and Cath G. Table 7 discloses the activity of Compounds 4A (C) and 3E (D) as inhibitors of Proteinase-3 activity. Compounds (A) and (B) have been disclosed previously (Groutas et al., Bioorganic and Med. Chem. 1(4):273-277, 1993; Groutas et al., J. Med. Chem. 36:3178, 1993).
# XII. Materials: Human leukocyte elastase was purchased from Elastin Products Co., Owensville, Mo.
# (§2) Human leukocyte cathepsin G was obtained from Athens Research and Technology, Athens, Ga. Methoxysuccinyl Ala-Ala-Pro-Val p-nitroanilide and methoxysuccinyl Ala-Ala-Pro-Phe p-nitroanilide were purchased from Sigma Chemicals Co., St. Louis, Mo. Baker-analyzed 60-200 mesh silica gel was used for flash chromatography.
# cathepsin G (Cath G) = target: T2, cathepsin G (Cath G) (Homo sapiens, UniProt P08311); test: Inactivation of human leukocyte cathepsin G (kobs/[I]); settings: for kinact/KI: pH 7.5
# T2 construct: purchased Athens Research and Technology, Athens, Ga
# T2 sequence (P08311 21-244 limits assumed): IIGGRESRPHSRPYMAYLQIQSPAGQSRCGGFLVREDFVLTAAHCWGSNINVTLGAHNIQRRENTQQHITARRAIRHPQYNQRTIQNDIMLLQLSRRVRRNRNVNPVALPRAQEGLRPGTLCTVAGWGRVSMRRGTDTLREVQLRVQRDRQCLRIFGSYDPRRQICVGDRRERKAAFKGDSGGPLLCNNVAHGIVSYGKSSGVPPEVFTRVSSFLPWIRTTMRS
# Procedure: Human leukocyte cathepsin G (1.33 uM) is incubated with compound 8 (133 uM) (a) or compound 10 (13.3 uM) (b) in 0.1M HEPES buffer, pH 7.5, and 10% DMSO. Aliquots were withdrawn at different time intervals and assayed for enzymatic activity using methoxysuccinyl Ala-Ala-Pro-Phe p-nitroanilide.
# Human leukocyte cathepsin G (1.48 μM was incubated with inhibitor 5A (1.48 μM in 0.1M HEPES buffer, pH 7.5, and 1% DMSO. Aliquots were withdrawn at different time intervals and assayed for enzymatic activity using methoxysuccinyl Ala-Ala-Pro-Phe p-nitroanilide.
# as §1, §2
# Proteinase-3 = target: T3, Proteinase-3 (Homo sapiens, UniProt P24158); test: Proteinase-3 inhibition; set-up: % Proteinase-3 Inhibition: concentration or dose not given beside the values; settings: Table 7
# T3 sequence (P24158 28-248 limits assumed): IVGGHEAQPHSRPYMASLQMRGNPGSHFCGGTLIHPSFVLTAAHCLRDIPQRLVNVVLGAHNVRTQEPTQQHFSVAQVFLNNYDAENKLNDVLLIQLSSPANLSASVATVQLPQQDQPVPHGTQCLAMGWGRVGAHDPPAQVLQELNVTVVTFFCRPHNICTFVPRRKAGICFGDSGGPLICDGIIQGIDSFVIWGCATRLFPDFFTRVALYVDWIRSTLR
# Description: as §1
structure (smiles),measurement,setting,value
"O=C1C(Cc2ccccc2)CS(=O)(=O)N1C(CF)Sc1ccccc1 (centres unmarked) [Compound 7, 4-Benzyl-2-(2-fluoro-1-phenylthioethyl) isothiazolidin-3-one 1,1-dioxide]",HLE % inhibition,[1],24%
same,kinact/KI,cathepsin G (Cath G); Table 1B,40 M⁻¹ s⁻¹
O=C(/C=C\Sc1ccccc1)OCN1C(=O)C(Cc2ccccc2)CS1(=O)=O (centres unmarked) [Compound 6C],kinact/KI,[1]; Table 4,170 M⁻¹ s⁻¹
same,kinact/KI,cathepsin G (Cath G); Table 4,7270 M⁻¹ s⁻¹
CC(C)(C)OC(=O)N[C@@H](Cc1ccccc1)C(=O)OCN1C(=O)C(Cc2ccccc2)CS1(=O)=O (some centres unmarked) [Compound 2B],kinact/KI,[1]; Table 3,680 M⁻¹ s⁻¹
same,kinact/KI,cathepsin G (Cath G); Table 3,10 M⁻¹ s⁻¹
O=C1C(Cc2ccccc2)N(Cc2ccccc2)S(=O)(=O)N1CF (centres unmarked) [drawing 93 R = benzyl],% Proteinase-3 Inhibition,Proteinase-3,43%
O=C(CSc1ccccc1)OCN1C(=O)C(Cc2ccccc2)CS1(=O)=O (centres unmarked) [Compound 3C],kinact/KI,[1]; Table 4,1020 M⁻¹ s⁻¹
same,kinact/KI,cathepsin G (Cath G); Table 4,3340 M⁻¹ s⁻¹
O=C(N[C@H](Cc1ccccc1)C(=O)OCN1C(=O)C(Cc2ccccc2)CS1(=O)=O)OCc1ccccc1 (some centres unmarked) [Compound 3B],kinact/KI,[1]; Table 3,2300 M⁻¹ s⁻¹
same,kinact/KI,cathepsin G (Cath G); Table 3,160 M⁻¹ s⁻¹
CC(C)CC1C(=O)N(CS(=O)(=O)c2ccccc2)S(=O)(=O)N1C (centres unmarked) [drawing 92 R = methyl],% Proteinase-3 Inhibition,Proteinase-3,84%
CC(C)Cc1ccc(C(C)C(=O)OCN2C(=O)C(Cc3ccccc3)CS2(=O)=O)cc1 (centres unmarked) [Compound 1],kinact/KI,[1]; Table 1A,160 M⁻¹ s⁻¹
same,kinact/KI,cathepsin G (Cath G); Table 1A,240 M⁻¹ s⁻¹
CC(C)(C)OC(=O)N1CCC[C@H]1C(=O)OCN1C(=O)C(Cc2ccccc2)CS1(=O)=O (some centres unmarked) [Compound 6B],kinact/KI,[1]; Table 3,170 M⁻¹ s⁻¹
same,kinact/KI,cathepsin G (Cath G); Table 3,590 M⁻¹ s⁻¹
"O=C1C(Cc2ccccc2)CS(=O)(=O)N1C(CF)S(=O)(=O)c1ccccc1 (centres unmarked) [Compound 8, 4-Benzyl-2-(2-fluoro-1-phenylsulfonylethyl) isothiazolidin-3-one 1,1-dioxide]",kinact/KI,[1]; Table 1B,50 M⁻¹ s⁻¹
same,time-dependent loss of serine protease activity,"cathepsin G (Cath G); FIG. 5, Cath G 1.33 uM, inhibitor 133 uM, 0.1M HEPES pH 7.5, 10% DMSO",time-dependent loss of serine protease activity
same,kinact/KI,cathepsin G (Cath G); Table 1B,420 M⁻¹ s⁻¹
CC(C(=O)OCN1C(=O)C(Cc2ccccc2)CS1(=O)=O)c1cccc(C(=O)c2ccccc2)c1 (centres unmarked) [Compound 3],kinact/KI,[1]; Table 1A,210 M⁻¹ s⁻¹
same,kinact/KI,cathepsin G (Cath G); Table 1A,290 M⁻¹ s⁻¹
CC(C)CC1C(=O)N(CS(=O)(=O)c2ccccc2)S(=O)(=O)N1Cc1ccccc1 (centres unmarked) [drawing 92 R = benzyl],% Proteinase-3 Inhibition,Proteinase-3,86%
O=C(Cc1ccccc1Nc1c(Cl)cccc1Cl)OCN1C(=O)C(Cc2ccccc2)CS1(=O)=O (centres unmarked) [Compound 2],kinact/KI,[1]; Table 1A,30 M⁻¹ s⁻¹
same,kinact/KI,cathepsin G (Cath G); Table 1A,80 M⁻¹ s⁻¹
O=C1c2ccccc2S(=O)(=O)N1CF [drawing 94],% Proteinase-3 Inhibition,Proteinase-3,79%
O=C1C(Cc2ccccc2)CS(=O)(=O)N1CCl (centres unmarked) [Compound 2D],kinact/KI,[1]; Table 5,670 M⁻¹ s⁻¹
same,kinact/KI,cathepsin G (Cath G); Table 5,2040 M⁻¹ s⁻¹
"C=C(N1C(=O)C(Cc2ccccc2)CS1(=O)=O)S(=O)(=O)c1ccccc1 (centres unmarked) [Compound 9, 4-Benzyl-2-(1-phenylsulfonylvinyl)isothiazolidin-3-one 1,1-dioxide]",HLE % inhibition,[1],20%
same,kinact/KI,cathepsin G (Cath G); Table 1B,340 M⁻¹ s⁻¹
